For two compounds, KM results are on record in article PMC5651918, “Evolving stability and pH-dependent activity of the high redox potential Botrytis aclada laccase for enzymatic fuel cells” (Scientific Reports, 2017).

The assay has as its target T1, Botrytis aclada laccase (BaL WT) (Botrytis aclada, UniProt H8ZRU2).
T1 construct: BaL cDNA, secreted recombinant from Pichia pastoris X-33 (pGAPZ A, pBaLac)
T1 sequence (H8ZRU2 20-580): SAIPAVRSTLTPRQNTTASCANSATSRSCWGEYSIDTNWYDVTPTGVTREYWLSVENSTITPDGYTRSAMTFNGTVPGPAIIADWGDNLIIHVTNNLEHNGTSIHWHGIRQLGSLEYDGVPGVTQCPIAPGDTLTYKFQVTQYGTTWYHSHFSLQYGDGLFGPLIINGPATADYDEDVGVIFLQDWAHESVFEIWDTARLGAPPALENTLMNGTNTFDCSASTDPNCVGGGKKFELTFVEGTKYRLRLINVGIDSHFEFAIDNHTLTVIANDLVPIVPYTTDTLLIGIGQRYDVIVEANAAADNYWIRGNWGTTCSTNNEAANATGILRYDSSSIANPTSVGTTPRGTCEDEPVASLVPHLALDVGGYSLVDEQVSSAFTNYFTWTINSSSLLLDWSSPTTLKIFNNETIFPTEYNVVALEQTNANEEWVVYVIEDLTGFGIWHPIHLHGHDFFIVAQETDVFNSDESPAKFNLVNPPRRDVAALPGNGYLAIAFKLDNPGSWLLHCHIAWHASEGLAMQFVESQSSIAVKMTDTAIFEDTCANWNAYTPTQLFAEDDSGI
Briefly: steady-state photometric kinetics, Michaelis-Menten fit. The class given is biochemical. The settings on record: pH 3.0, 4.5 and 6.0; apparent constants.

Take `CCn1c(=NN=c2sc3cc(S(=O)(=O)O)ccc3n2CC)sc2cc(S(=O)(=O)O)ccc21` [ABTS, 2,2′-azino-bis(3-ethylbenzothiazoline-6-sulfonic acid)]: the KM result was “apparent steady-state kinetic constants were determined for the two substrates DMP and ABTS”. In the case of `COc1cccc(OC)c1O` [DMP, 2,6-dimethoxyphenol], the KM result is “apparent steady-state kinetic constants were determined for the two substrates DMP and ABTS”.
